Experimental findings from patent US12528816B2, “Substituted imidazo [1,2-b] pyridazines and [1, 2, 4] triazolo [ 4,3-b] pyridazines as camkii inhibitors” (Cardurion Pharmaceuticals, INC., priority 2020, dated 2026) are described below.

SMILES strings stand for the structures.

For the experiment, the target named is T1, human CaMKIIδ (Homo sapiens, UniProt Q13557).
T1 construct: Full-length, glutathione-S-transferase(GST)-tagged, human CaMKIIδ was purchased from Carna Biosciences; purchased Carna Biosciences (CaMKIIδ); Wako Pure Chemical Industries (calmodulin) 02-111
The experiment in a line: Evaluation of in vitro CaMKII inhibitory activity (binding assay, TR-FRET). As to conditions: human CaMKIIδ, TR-FRET binding assay; class symbols A/B/C; read-out: Act (CaMKII inhibitory activity, binding assay). The method, boiled down: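 Inhibitors, in eight concentrations of 4-fold dilution, were incubated 1 h at room temperature with a protein–fluorescent probe premix preformed 30 min on ice, containing calmodulin and terbium anti-GST antibody. Displacement read by TR-FRET in duplicate; IC50 by logistic fitting.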
In general terms: TR-FRET usually uses a lanthanide donor and a delayed reading to cut background.
Take `C[C@@H](Cn1cnnn1)Nc1ccnc(-c2ccc3ncc(-c4cc(F)ccc4C#N)n3n2)c1` [compound 483]: the IC50 is less than 0.01 µM. In the case of `C[C@@H](Cn1cnnn1)Nc1cncc(-c2ccc3ncc(-c4cc(F)ccc4C#N)n3n2)n1` [compound 484] it was less than 0.01 µM; in that of `C[C@@H](Cn1cnnn1)Nc1cc(-c2ccc3ncc(-c4ncccc4C#N)n3n2)ccc1F` [compound 485], less than 0.01 µM.

For the molecule `COc1ccnc(-c2cnc3ccc(-c4cc(O[C@@H](C)Cn5cnnn5)ccn4)nn23)c1C#N` [compound 486], the IC50 fell in the range of 0.01 to 0.1 µM.
